Laboratory results from ChEMBL document CHEMBL1146202, “First report of plasmid-mediated qnrA1 in a ciprofloxacin-resistant Escherichia coli strain in Latin America” (2007).
≈ marks a conversion by molar mass, not a printed value.

Tests used:
Type in all cases: functional
Escherichia coli [1] = test: Antimicrobial activity against Escherichia coli qnrA1 producing urinary specimen isolate 13.52 by agar dilution method; conditions: Urine
Escherichia coli [2] = test: Antimicrobial activity against streptomycin-resistant Escherichia coli J53 transconjugant with qnrA1 producing urinary specimen isolate 13.52 by agar dilution method
Escherichia coli [3] = test: Antimicrobial activity against streptomycin-resistant Escherichia coli J53 by agar dilution method

Compound	MIC (Escherichia coli [1]) [µg/mL]	MIC (Escherichia coli [2]; J53, Urine) [µg/mL]	MIC (Escherichia coli [3]) [µg/mL]	MIC (Escherichia coli [2]; Urine) [µg/mL]
CO[C@@]1(NC(=O)Cc2cccs2)C(=O)N2C(C(=O)O)=C(COC(N)=O)CS[C@@H]21 [CEFOXITIN]	32 (≈ 74.9 µM)	256 (≈ 599 µM)	8 (≈ 18.7 µM)	
NCC[C@H](O)C(=O)N[C@@H]1C[C@H](N)[C@@H](O[C@H]2O[C@H](CN)[C@@H](O)[C@H](O)[C@H]2O)[C@H](O)[C@H]1O[C@H]1O[C@H](CO)[C@@H](O)[C@H](N)[C@H]1O [AMIKACIN]	4 (≈ 6.83 µM)	2 (≈ 3.42 µM)	2 (≈ 3.42 µM)	
O=C(N[C@H](CO)[C@H](O)c1ccc([N+](=O)[O-])cc1)C(Cl)Cl [CHLORAMPHENICOL]	> 256	48 (≈ 149 µM)	8 (≈ 24.8 µM)	
NC[C@H]1O[C@H](O[C@H]2[C@H](O)[C@@H](O[C@H]3O[C@H](CO)[C@@H](O)[C@H](N)[C@H]3O)[C@H](N)C[C@@H]2N)[C@H](O)[C@@H](O)[C@@H]1O [KANAMYCIN]	32 (≈ 66 µM)	128 (≈ 264 µM)	8 (≈ 16.5 µM)	
CN[C@@H]1[C@H](O[C@H]2[C@H](O[C@H]3[C@H](O)[C@@H](O)[C@H](N=C(N)N)[C@@H](O)[C@@H]3N=C(N)N)O[C@@H](C)[C@]2(O)C=O)O[C@@H](CO)[C@H](O)[C@H]1O (stereo in doubt) [STREPTOMYCIN]	192 (≈ 330 µM)	> 1020	> 1020	
CO/N=C(\C(=O)N[C@@H]1C(=O)N2C(C(=O)[O-])=C(C[N+]3(C)CCCC3)CS[C@H]12)c1csc(N)n1 [CEFEPIME]	0.5 (≈ 1.04 µM)	0.5 (≈ 1.04 µM)	0.06 (≈ 0.125 µM)	
CO/N=C(\C(=O)N[C@@H]1C(=O)N2C(C(=O)O)=C(CSc3nc(=O)c(O)nn3C)CS[C@H]12)c1csc(N)n1 (stereo in doubt) [CEFTRIAXONE]	8 (≈ 14.4 µM)	8 (≈ 14.4 µM)	0.047 (≈ 0.0847 µM)	
CCn1cc(C(=O)O)c(=O)c2ccc(C)nc21 [NALIDIXIC ACID]	256 (≈ 1100 µM)	128 (≈ 551 µM)	4 (≈ 17.2 µM)	
C[C@@H](O)[C@H]1C(=O)N2C(C(=O)O)=C(S[C@@H]3CN[C@H](C(=O)N(C)C)C3)[C@H](C)[C@H]12 [MEROPENEM]	≤ 0.025	≤ 0.025	≤ 0.025	
CC1(C)S[C@@H]2[C@H](NC(=O)[C@H](N)c3ccccc3)C(=O)N2[C@H]1C(=O)O [AMPICILLIN]	> 256	> 256	8 (≈ 22.9 µM)	
COc1c(N2CCNC(C)C2)c(F)cc2c(=O)c(C(=O)O)cn(C3CC3)c12 (stereo not given) [GATIFLOXACIN]	8 (≈ 21.3 µM)	1 (≈ 2.66 µM)	0.012 (≈ 0.032 µM)	
CC(O)[C@H]1C(=O)N2C(C(=O)O)=C(SCCNC=N)C[C@H]12 (single isomer, unassigned) [IMIPENEM ANHYDROUS]	≤ 0.025	≤ 0.025	≤ 0.025	
GENTAMICIN	2		0.125	2
CC(C)(O/N=C(\C(=O)N[C@@H]1C(=O)N2C(C(=O)[O-])=C(C[n+]3ccccc3)CS[C@H]12)c1csc(N)n1)C(=O)O [CEFTAZIDIME]	64 (≈ 117 µM)	128 (≈ 234 µM)	0.25 (≈ 0.457 µM)	
C[C@H]1COc2c(N3CCN(C)CC3)c(F)cc3c(=O)c(C(=O)O)cn1c23.C[C@H]1COc2c(N3CCN(C)CC3)c(F)cc3c(=O)c(C(=O)O)cn1c23.O [LEVOFLOXACIN]	8	1.5	0.064	
